# Results taken from ChEMBL document CHEMBL4808177, “Use of Intramolecular 1,5-Sulfur-Oxygen and 1,5-Sulfur-Halogen Interactions in the Design of N-Methyl-5-aryl-N-(2,2,6,6-tetramethylpiperidin-4-yl)-1,3,4-thiadiazol-2-amine SMN2 Splicing Modulators” (J Med Chem, 2021).
# Test: Intrinsic clearance in mouse liver microsomes
# Format: ADME, Microsome
# Conditions: read-out: CLH
row,Structure (SMILES),microsomal CLint [µL/min/mg]
1,CN(c1nnc(-c2c(O)cc(-c3cn[nH]c3)c(F)c2F)s1)C1CC(C)(C)NC(C)(C)C1,67
2,CN(c1nnc(-c2c(O)cc(-c3cn[nH]c3)cc2Cl)s1)C1CC(C)(C)NC(C)(C)C1,116
3,CN(c1nnc(-c2c(O)cc(-c3cn[nH]c3)cc2F)s1)C1CC(C)(C)NC(C)(C)C1,50

# Test: Apparent permeability across basolateral to apical side in human Caco-2 cells
# Format: ADME, cell-based
# Conditions: not given
row,Structure (SMILES),Papp B→A [×10⁻⁶ cm/s]
1,CN(c1nnc(-c2ccc(-c3cnn(C)c3)cc2O)s1)C1CC(C)(C)NC(C)(C)C1,2.5
2,COc1cc(-n2cccn2)ccc1-c1nnc(N(C)C2CC(C)(C)NC(C)(C)C2)s1,6.9
3,CN(c1nnc(-c2ccc(-c3ccn(C)c(=O)c3)cc2O)s1)C1CC(C)(C)NC(C)(C)C1,6.8

# Test: Drug uptake in SMN C/+ allele mouse plasma at 50 mg/kg, po measured after 4 hrs
# Format: ADME, organism-based
# Conditions: not given
row,Structure (SMILES),concentration at 4 h [nM]
1,CN(c1nnc(-c2ccc(-c3cn[nH]c3)c(F)c2F)s1)C1CC(C)(C)NC(C)(C)C1,3600

# Test: In vivo modulation of SMN2 splicing activity in SMN C/+ allele mouse model assessed as fold increase in full length SMN protein level in brain at 50 mg/kg, po once daily for 5 days relative to control
# Format: functional
# Conditions: time 5 day
row,Structure (SMILES),fold change (FC)
1,CN(c1nnc(-c2ccc(-c3cn[nH]c3)c(F)c2F)s1)C1CC(C)(C)NC(C)(C)C1,1.6

# Test: Apparent permeability from basolateral to apical side in MDCK-MDR1 cells
# Format: ADME, cell-based, Canis lupus familiaris
# Conditions: dog
row,Structure (SMILES),Papp B→A [×10⁻⁶ cm/s]
1,CN(c1nnc(-c2c(O)cc(-c3cn[nH]c3)c(F)c2F)s1)C1CC(C)(C)NC(C)(C)C1,23
2,CN(c1nnc(-c2c(O)cc(-c3cn[nH]c3)cc2F)s1)C1CC(C)(C)NC(C)(C)C1,41
3,CN(c1nnc(-c2ccc(-c3cn[nH]c3)c(F)c2F)s1)C1CC(C)(C)NC(C)(C)C1,8

# Test: Modulation of SMN2 splicing in myoblast cell line derived from the SMNdelta7 mouse model assessed as increase in SMN level measured as fold activation treated for 24 hrs by ELISA
# Format: functional, Primary myoblast
# Conditions: not given
row,Structure (SMILES),EC50 [nM]
1,CN(c1nnc(-c2ccc(-c3cnn(C)c3)cc2O)s1)C1CC(C)(C)NC(C)(C)C1,32
2,COc1cc(-n2cccn2)ccc1-c1nnc(N(C)C2CC(C)(C)NC(C)(C)C2)s1,62
3,CN(c1nnc(-c2c(O)cc(-c3cn[nH]c3)c(F)c2F)s1)C1CC(C)(C)NC(C)(C)C1,3
4,CN(c1nnc(-c2c(O)cc(-c3cn[nH]c3)cc2Cl)s1)C1CC(C)(C)NC(C)(C)C1,3
5,CN(c1nnc(-c2c(O)cc(-c3cn[nH]c3)cc2F)s1)C1CC(C)(C)NC(C)(C)C1,6
6,CN(c1nnc(-c2ccc(-c3ccn(C)c(=O)c3)cc2O)s1)C1CC(C)(C)NC(C)(C)C1,61
7,CN(c1nnc(-c2ccc(-c3cn[nH]c3)c(F)c2F)s1)C1CC(C)(C)NC(C)(C)C1,33

# Test: Drug uptake in Sprague-Dawley rat brain at 3 mg/kg, po measured after 7 hrs by HPLC-MS/MS analysis
# Format: ADME, organism-based
# Conditions: read-out: Drug uptake
row,Structure (SMILES),concentration at 7 h [nM]
1,CN(c1nnc(-c2ccc(-c3cn[nH]c3)c(F)c2F)s1)C1CC(C)(C)NC(C)(C)C1,498

# Test: Intrinsic clearance in rat liver microsomes
# Format: ADME, Microsome
# Conditions: read-out: CLH
row,Structure (SMILES),microsomal CLint [µL/min/mg]
1,CN(c1nnc(-c2ccc(-c3cn[nH]c3)c(F)c2F)s1)C1CC(C)(C)NC(C)(C)C1,46

# Test: Apparent permeability from apical to basolateral side in MDCK-MDR1 cells
# Format: ADME, cell-based, Canis lupus familiaris
# Conditions: dog
row,Structure (SMILES),Papp A→B [×10⁻⁶ cm/s]
1,CN(c1nnc(-c2c(O)cc(-c3cn[nH]c3)c(F)c2F)s1)C1CC(C)(C)NC(C)(C)C1,8
2,CN(c1nnc(-c2c(O)cc(-c3cn[nH]c3)cc2F)s1)C1CC(C)(C)NC(C)(C)C1,10
3,CN(c1nnc(-c2ccc(-c3cn[nH]c3)c(F)c2F)s1)C1CC(C)(C)NC(C)(C)C1,3

# Test: Apparent permeability across apical to basolateral side in human Caco-2 cells
# Format: ADME, cell-based
# Conditions: not given
row,Structure (SMILES),Papp A→B [×10⁻⁶ cm/s]
1,CN(c1nnc(-c2ccc(-c3cnn(C)c3)cc2O)s1)C1CC(C)(C)NC(C)(C)C1,2.4
2,COc1cc(-n2cccn2)ccc1-c1nnc(N(C)C2CC(C)(C)NC(C)(C)C2)s1,13.8
3,CN(c1nnc(-c2ccc(-c3ccn(C)c(=O)c3)cc2O)s1)C1CC(C)(C)NC(C)(C)C1,3.7

# Test: Volume of distribution at steady state in Sprague-Dawley rat at 1 mg/kg, iv and 3 mg/kg, po measured up to 7 hrs by HPLC-MS/MS analysis
# Format: ADME, organism-based
# Conditions: in vivo, read-out: Vdss
row,Structure (SMILES),Vd [L/kg]
1,CN(c1nnc(-c2ccc(-c3cnn(C)c3)cc2O)s1)C1CC(C)(C)NC(C)(C)C1,7
2,COc1cc(-n2cccn2)ccc1-c1nnc(N(C)C2CC(C)(C)NC(C)(C)C2)s1,10.9
3,CN(c1nnc(-c2ccc(-c3ccn(C)c(=O)c3)cc2O)s1)C1CC(C)(C)NC(C)(C)C1,10.7

# Test: Solubility of the compound at pH 6.8 by high-throughput miniaturized shake flask solubility assay
# Format: physicochemical
# Conditions: buffer
Structure (SMILES),solubility thermodynamic [µM],solubility
CN(c1nnc(-c2c(O)cc(-c3cn[nH]c3)c(F)c2F)s1)C1CC(C)(C)NC(C)(C)C1,150,–
CN(c1nnc(-c2c(O)cc(-c3cn[nH]c3)cc2Cl)s1)C1CC(C)(C)NC(C)(C)C1,220,–
CN(c1nnc(-c2c(O)cc(-c3cn[nH]c3)cc2F)s1)C1CC(C)(C)NC(C)(C)C1,–,Insoluble
CN(c1nnc(-c2ccc(-c3cn[nH]c3)c(F)c2F)s1)C1CC(C)(C)NC(C)(C)C1,48,–

# Test: Clearance in Sprague-Dawley rat at 1 mg/kg, iv and 3 mg/kg, po measured up to 7 hrs by HPLC-MS/MS analysis
# Format: ADME, organism-based
# Conditions: in vivo
row,Structure (SMILES),clearance [mL/min/kg]
1,CN(c1nnc(-c2ccc(-c3cnn(C)c3)cc2O)s1)C1CC(C)(C)NC(C)(C)C1,71
2,COc1cc(-n2cccn2)ccc1-c1nnc(N(C)C2CC(C)(C)NC(C)(C)C2)s1,72
3,CN(c1nnc(-c2ccc(-c3ccn(C)c(=O)c3)cc2O)s1)C1CC(C)(C)NC(C)(C)C1,163

# Test: Drug uptake in SMN C/+ allele mouse brain at 50 mg/kg, po measured after 4 hrs
# Format: ADME, organism-based
# Conditions: read-out: Drug uptake
row,Structure (SMILES),concentration at 4 h [nM]
1,CN(c1nnc(-c2ccc(-c3cn[nH]c3)c(F)c2F)s1)C1CC(C)(C)NC(C)(C)C1,2500

# Test: AUC (extrapolated) in Sprague-Dawley rat at 3 mg/kg, po measured up to 7 hrs by HPLC-MS/MS analysis
# Format: ADME, organism-based
# Design: route oral, dose 3 mg/kg, time <=7
# Conditions: in vivo
row,Structure (SMILES),AUC at 7 h [µM·h]
1,CN(c1nnc(-c2ccc(-c3cnn(C)c3)cc2O)s1)C1CC(C)(C)NC(C)(C)C1,0.554
2,COc1cc(-n2cccn2)ccc1-c1nnc(N(C)C2CC(C)(C)NC(C)(C)C2)s1,0.895
3,CN(c1nnc(-c2ccc(-c3ccn(C)c(=O)c3)cc2O)s1)C1CC(C)(C)NC(C)(C)C1,0.227

# Test: Half life in Sprague-Dawley rat at 1 mg/kg, iv and 3 mg/kg, po measured up to 7 hrs by HPLC-MS/MS analysis
# Format: ADME, organism-based
# Conditions: in vivo
row,Structure (SMILES),half-life [h]
1,CN(c1nnc(-c2ccc(-c3cnn(C)c3)cc2O)s1)C1CC(C)(C)NC(C)(C)C1,2
2,COc1cc(-n2cccn2)ccc1-c1nnc(N(C)C2CC(C)(C)NC(C)(C)C2)s1,1.9
3,CN(c1nnc(-c2ccc(-c3ccn(C)c(=O)c3)cc2O)s1)C1CC(C)(C)NC(C)(C)C1,1.3

# Test: Cmax in Sprague-Dawley rat at 1 mg/kg, iv and 3 mg/kg, po measured up to 7 hrs by HPLC-MS/MS analysis
# Format: ADME, organism-based
# Design: dose 3 mg/kg, time <=7
# Conditions: in vivo
row,Structure (SMILES),Cmax [nM]
1,CN(c1nnc(-c2ccc(-c3cnn(C)c3)cc2O)s1)C1CC(C)(C)NC(C)(C)C1,50
2,COc1cc(-n2cccn2)ccc1-c1nnc(N(C)C2CC(C)(C)NC(C)(C)C2)s1,221
3,CN(c1nnc(-c2ccc(-c3ccn(C)c(=O)c3)cc2O)s1)C1CC(C)(C)NC(C)(C)C1,38

# Test: Modulation of SMN2 splicing activity in myoblast cell line derived from the SMNdelta7 mouse model assessed as increase in SMN level treated for 24 hrs by ELISA relative to control
# Format: functional, Primary myoblast
# Conditions: not given
row,Structure (SMILES),fold change (FC)
1,CN(c1nnc(-c2ccc(-c3cnn(C)c3)cc2O)s1)C1CC(C)(C)NC(C)(C)C1,3.1
2,COc1cc(-n2cccn2)ccc1-c1nnc(N(C)C2CC(C)(C)NC(C)(C)C2)s1,2.5
3,CN(c1nnc(-c2c(O)cc(-c3cn[nH]c3)c(F)c2F)s1)C1CC(C)(C)NC(C)(C)C1,2.7
4,CN(c1nnc(-c2c(O)cc(-c3cn[nH]c3)cc2Cl)s1)C1CC(C)(C)NC(C)(C)C1,2.5
5,CN(c1nnc(-c2c(O)cc(-c3cn[nH]c3)cc2F)s1)C1CC(C)(C)NC(C)(C)C1,2.6
6,CN(c1nnc(-c2ccc(-c3ccn(C)c(=O)c3)cc2O)s1)C1CC(C)(C)NC(C)(C)C1,3.4
7,CN(c1nnc(-c2ccc(-c3cn[nH]c3)c(F)c2F)s1)C1CC(C)(C)NC(C)(C)C1,3
